Laboratory results reported in US20230047788A1, “COMPOSITIONS COMPRISING 5-CHOLESTEN-3, 25-DIOL, 3-SULFATE (25HC3S) OR PHARMACEUTICALLY ACCEPTABLE SALT THEREOF AND AT LEAST ONE CYCLIC OLIGOSACCHARIDE” (Virginia Commonwealth University, priority 2016, published 2023).
Where “and” joins values, the source holds several entries; their conditions need not be identical. Equal entries are not always repeated.

Experiment: Infusion compatibility of constituted 25HC3S solution with 5% dextrose, 0.9% sodium chloride and two infusion sets
Format: physicochemical
Conditions: for % Remaining after infusion set / Concentration after infusion set / Osmolality after infusion set / pH after infusion set: 0.9% NaCl
Experimental: After constitution with Vehicle, the 30 mg/mL 25HC3S product was diluted into 100 mL of 5% dextrose injection, USP or 0.9% sodium chloride injection, USP, and was administered to subjects as an IV infusion ranging from a 30 mg to 150 mg 25HC3S dose. This was accomplished by adding 1.0 mL (for the 30 mg dose) or 5.0 mL (for the 150 mg dose), or any volume in between, of the 30 mg/mL 25HC3S product into a 100 mL dextrose or sodium chloride infusion bag. The entire admixture content in the infusion bag was infused into the subject over approximately 2 hours at a rate of 50 mL/hour.
A physical and chemical compatibility study was conducted at a 30 mg, 48 mg and 300 mg 25HC3S dose in 5% dextrose and 0.9% sodium chloride infusion bags. Descriptions of the two kinds of infusion sets tested with 25HC3S product diluted in 5% dextrose and 0.9% sodium chloride are listed in Table 15. The tubing in catalog number 2H8480 infusion set was composed of polyvinylchloride (PVC), while the tubing in catalog number 2C8858 was polyethylene lined except for a short pump segment (approximately 12 inches) which was composed of PVC.
25HC3S for Injection and Vehicle for 25HC3S for Injection, that had been stored at 2-8° C. for approximately 16 months, were used for the compatibility study. After constitution, 30 mg (1.0 mL of constituted product), 48 mg (1.6 mL of constituted product) or 300 mg (10 mL of constituted product) were added to 100 mL infusion bags of 5% dextrose and 0.9% sodium chloride, mixed thoroughly, and stored for 24 hours at room temperature and at 2-8° C. […] Taking into consideration the overfill per infusion bag and the additional volume introduced by adding the constituted 25HC3S product to each bag, the expected concentrations of 25HC3S were 0.28 mg/mL, 0.44 mg/mL, and 2.56 mg/mL in the infusion bags. Two kinds of infusion sets were then attached to the drug containing infusion bags, and the entire contents were eluted through the infusion sets at approximately 50 mL/hour at room temperature. Samples were collected from the 25HC3S prepared infusion bags at T=0 and at 24 hours, and from the total eluent passed through the infusion sets, and tested for 25HC3S concentration using HPLC. Solution visual appearance, osmolality (using method USP<785>), and pH (using method USP<791>) were also measured on the collected samples.

[1] = ~0.28 mg/mL, 24 h 2-8°C then Baxter 2C8858
[2] = ~0.28 mg/mL, 24 h 2-8°C then Baxter 2H8480
[3] = ~0.28 mg/mL, 24 h RT then Baxter 2C8858
[4] = ~0.28 mg/mL, 24 h RT then Baxter 2H8480
[5] = ~0.44 mg/mL, 24 h 2-8°C then Baxter 2C8858
[6] = ~0.44 mg/mL, 24 h 2-8°C then Baxter 2H8480
[7] = ~0.44 mg/mL, 24 h RT then Baxter 2C8858
[8] = ~0.44 mg/mL, 24 h RT then Baxter 2H8480
[9] = ~2.56 mg/mL, 24 h 2-8°C then Baxter 2C8858
[10] = ~2.56 mg/mL, 24 h 2-8°C then Baxter 2H8480
[11] = ~2.56 mg/mL, 24 h RT then Baxter 2C8858
[12] = ~2.56 mg/mL, 24 h RT then Baxter 2H8480
[13] = 0.9% sodium chloride bag, ~0.28 mg/mL, 24 Hours at 2-8°C
[14] = 0.9% sodium chloride bag, ~0.28 mg/mL, 24 Hours at RT
[15] = 0.9% sodium chloride bag, ~0.28 mg/mL, T = 0
[16] = 0.9% sodium chloride bag, ~0.44 mg/mL, 24 Hours at 2-8°C
[17] = 0.9% sodium chloride bag, ~0.44 mg/mL, 24 Hours at RT
[18] = 0.9% sodium chloride bag, ~0.44 mg/mL, T = 0
[19] = 0.9% sodium chloride bag, ~2.56 mg/mL, 24 Hours at 2-8°C
[20] = 0.9% sodium chloride bag, ~2.56 mg/mL, 24 Hours at RT
[21] = 0.9% sodium chloride bag, ~2.56 mg/mL, T = 0

**Q.** For `C[C@H](CCCC(C)(C)O)[C@H]1CC[C@H]2[C@@H]3CC=C4C[C@@H](OS(=O)(=O)[O-])CC[C@]4(C)[C@H]3CC[C@]12C.[Na+]` [25HC3S, 5-cholesten-3, 25-diol, 3-sulfate], which “% Remaining after infusion set” value [1] is on record?
**A.** The value was “(100.0%)”.

**Q.** What about the “Concentration after infusion set” value [1] of the same molecule?
**A.** Its value is 275 µg/mL.

**Q.** What about the “Osmolality after infusion set” value [1] of the same molecule?
**A.** Its value is 276 mmol/kg.

**Q.** And the “pH after infusion set” value [1]?
**A.** The value was 5.78.

**Q.** And the “% Remaining after infusion set” value [2]?
**A.** Its value is “(100.4%)”.

**Q.** And the “Concentration after infusion set” value [2]?
**A.** The value was 275 µg/mL.

**Q.** And the “Osmolality after infusion set” value [2]?
**A.** The value was 277 mmol/kg.

**Q.** What about the “pH after infusion set” value [2] of the same molecule?
**A.** The value was 5.81.

**Q.** And the “% Remaining after infusion set” value [3]?
**A.** Its value is “(100.0%)”.

**Q.** What about the “Concentration after infusion set” value [3] of the same molecule?
**A.** The value was 274 µg/mL.

**Q.** What about the “Osmolality after infusion set” value [3] of the same molecule?
**A.** The value was 276 mmol/kg.

**Q.** What about the “pH after infusion set” value [3] of the same molecule?
**A.** The value was 5.83.

**Q.** And the “% Remaining after infusion set” value [4]?
**A.** Its value is “(99.6%)”.

**Q.** And the “Concentration after infusion set” value [4]?
**A.** The value was 272 µg/mL.

**Q.** What about the “Osmolality after infusion set” value [4] of the same molecule?
**A.** Its value is 276 mmol/kg.

**Q.** What about the “pH after infusion set” value [4] of the same molecule?
**A.** The value was 5.78.

**Q.** And the “% Remaining after infusion set” value [5]?
**A.** The value was “(100.2%)”.

**Q.** What about the “Concentration after infusion set” value [5] of the same molecule?
**A.** The value was 426 µg/mL.

**Q.** And the “Osmolality after infusion set” value [5]?
**A.** Its value is 281 mmol/kg.

**Q.** And the “pH after infusion set” value [5]?
**A.** The value was 7.16.

**Q.** And the “% Remaining after infusion set” value [6]?
**A.** The value was “(100.0%)”.

**Q.** And the “Concentration after infusion set” value [6]?
**A.** Its value is 434 µg/mL.

**Q.** What about the “Osmolality after infusion set” value [6] of the same molecule?
**A.** Its value is 282 mmol/kg.

**Q.** And the “pH after infusion set” value [6]?
**A.** The value was 7.13.

**Q.** And the “% Remaining after infusion set” value [7]?
**A.** The value was “(100.0%)”.

**Q.** And the “Concentration after infusion set” value [7]?
**A.** Its value is 424 µg/mL.

**Q.** What about the “Osmolality after infusion set” value [7] of the same molecule?
**A.** The value was 288 mmol/kg.

**Q.** What about the “pH after infusion set” value [7] of the same molecule?
**A.** Its value is 7.20.

**Q.** And the “% Remaining after infusion set” value [8]?
**A.** Its value is “(99.8%)”.

**Q.** And the “Concentration after infusion set” value [8]?
**A.** The value was 433 µg/mL.

**Q.** What about the “Osmolality after infusion set” value [8] of the same molecule?
**A.** Its value is 286 mmol/kg.

**Q.** And the “pH after infusion set” value [8]?
**A.** Its value is 7.09.

**Q.** And the “% Remaining after infusion set” value [9]?
**A.** Its value is “(99.8%)”.

**Q.** What about the “Concentration after infusion set” value [9] of the same molecule?
**A.** The value was 2520 µg/mL.

**Q.** And the “Osmolality after infusion set” value [9]?
**A.** Its value is 283 mmol/kg.

**Q.** And the “pH after infusion set” value [9]?
**A.** The value was 5.70.

**Q.** What about the “% Remaining after infusion set” value [10] of the same molecule?
**A.** Its value is “(100.0%)”.

**Q.** What about the “Concentration after infusion set” value [10] of the same molecule?
**A.** The value was 2530 µg/mL.

**Q.** And the “Osmolality after infusion set” value [10]?
**A.** Its value is 283 mmol/kg.

**Q.** And the “pH after infusion set” value [10]?
**A.** The value was 5.72.

**Q.** What about the “% Remaining after infusion set” value [11] of the same molecule?
**A.** The value was “(99.6%)”.

**Q.** What about the “Concentration after infusion set” value [11] of the same molecule?
**A.** The value was 2520 µg/mL.

**Q.** What about the “Osmolality after infusion set” value [11] of the same molecule?
**A.** The value was 279 mmol/kg.

**Q.** What about the “pH after infusion set” value [11] of the same molecule?
**A.** Its value is 5.83.

**Q.** What about the “% Remaining after infusion set” value [12] of the same molecule?
**A.** The value was “(100.4%)”.

**Q.** What about the “Concentration after infusion set” value [12] of the same molecule?
**A.** Its value is 2460 µg/mL.

**Q.** And the “Osmolality after infusion set” value [12]?
**A.** Its value is 283 mmol/kg.

**Q.** What about the “pH after infusion set” value [12] of the same molecule?
**A.** The value was 5.81.

**Q.** And the Concentration [13]?
**A.** The Concentration was 275 µg/mL.

**Q.** What about the Osmolality [13] of the same molecule?
**A.** The Osmolality was 276 mmol/kg.

**Q.** What about the pH [13] of the same molecule?
**A.** Its pH is 5.87 and 5.99.

**Q.** What about the Concentration [14] of the same molecule?
**A.** The Concentration was 272 µg/mL and 274 µg/mL.

**Q.** And the Osmolality [14]?
**A.** The Osmolality was 275 mmol/kg and 277 mmol/kg.

**Q.** What about the pH [14] of the same molecule?
**A.** Its pH is 5.93 and 5.92.

**Q.** What about the Osmolality [15] of the same molecule?
**A.** Its Osmolality is 278 mmol/kg and 277 mmol/kg.

**Q.** What about the “T = 0 Conc.” value [15] of the same molecule?
**A.** Its value is 0.273 mg/mL and 0.274 mg/mL and 0.275 mg/mL.

**Q.** And the pH [15]?
**A.** Its pH is 6.39 and 6.43 and 6.45 and 6.40.

**Q.** And the “% Remaining Compared to T = 0” value [16]?
**A.** The value was “(100.0%)”.

**Q.** And the Concentration [16]?
**A.** The Concentration was 434 µg/mL and 425 µg/mL.

**Q.** What about the Osmolality [16] of the same molecule?
**A.** The Osmolality was 281 mmol/kg.

**Q.** And the pH [16]?
**A.** Its pH is 7.43 and 7.19.

**Q.** What about the “% Remaining Compared to T = 0” value [17] of the same molecule?
**A.** Its value is “(100.0%)”.

**Q.** And the Concentration [17]?
**A.** Its Concentration is 434 µg/mL and 424 µg/mL.

**Q.** And the Osmolality [17]?
**A.** The Osmolality was 280 mmol/kg.

**Q.** And the pH [17]?
**A.** Its pH is 7.33 and 7.41.

**Q.** And the Osmolality [18]?
**A.** The Osmolality was 277 mmol/kg and 279 mmol/kg and 284 mmol/kg and 280 mmol/kg.

**Q.** What about the “T = 0 Conc.” value [18] of the same molecule?
**A.** Its value is 0.434 mg/mL and 0.424 mg/mL and 0.425 mg/mL.

**Q.** What about the pH [18] of the same molecule?
**A.** The pH was 7.30 and 7.43 and 7.21 and 7.44.

**Q.** And the Concentration [19]?
**A.** Its Concentration is 2510 µg/mL and 2520 µg/mL.

**Q.** And the Osmolality [19]?
**A.** The Osmolality was 283 mmol/kg.

**Q.** What about the pH [19] of the same molecule?
**A.** The pH was 5.93 and 5.96.

**Q.** What about the Concentration [20] of the same molecule?
**A.** The Concentration was 2500 µg/mL and 2525 µg/mL.

**Q.** What about the Osmolality [20] of the same molecule?
**A.** Its Osmolality is 282 mmol/kg.

**Q.** And the pH [20]?
**A.** The pH was 6.01 and 5.86.

**Q.** And the Osmolality [21]?
**A.** The Osmolality was 282 mmol/kg and 281 mmol/kg.

**Q.** What about the “T = 0 Conc.” value [21] of the same molecule?
**A.** The value was 2.450 mg/mL and 2.530 mg/mL and 2.525 mg/mL.

**Q.** And the pH [21]?
**A.** The pH was 6.20 and 6.10 and 6.07 and 6.11.

**Q.** And the “deviation of concentrations from initial T=0 time point” value (0.9% sodium chloride, 24 hours at RT and 2-8°C and after elution through infusion sets)?
**A.** Its value is no more than 2.0%.

**Q.** What about the Concentration (5% dextrose bag, ~0.28 mg/mL, 24 Hours at 2-8°C) of the same molecule?
**A.** The Concentration was 280 µg/mL.
